Laboratory results reported in ChEMBL document CHEMBL1126825, “4-Methoxy-2-methyltetrahydropyrans: chiral leukotriene biosynthesis inhibitors, related to ICI D2138, which display enantioselectivity” (J Med Chem, 1993).

Experiments:
[1] = species on record: Mus musculus; experiment: In vitro inhibition of LTC4 biosynthesis in plasma protein-free cultures of zymosan-stimulated mouse macrophages; format: functional
[2] = species on record: Homo sapiens; experiment: In vitro inhibition of LTB4 biosynthesis in A-23187-stimulated human whole blood; format: functional

Structure (SMILES) | IC50 [1] [nM] | IC50 [2] [nM]
CO[C@]1(c2cc(F)cc(OCc3ccc4c(ccc(=O)n4C)c3)c2)CCO[C@@H](C)C1 | 0.4 | 
CO[C@]1(c2cc(F)cc(OCc3ccc4c(ccc(=O)n4C)c3)c2)CCO[C@H](C)C1 | 8 | 140
CO[C@@]1(c2cc(F)cc(OCc3ccc4c(ccc(=O)n4C)c3)c2)CCO[C@H](C)C1 | 9 | 670
CO[C@@]1(c2cc(F)cc(OCc3ccc4c(ccc(=O)n4C)c3)c2)CCO[C@@H](C)C1 | 60 | 1760
